Our source for the EC50 values is ChEMBL document CHEMBL1147247, “New cytotoxic sesterterpenoids and norsesterterpenoids from two sponges of the genus Sarcotragus” (2003).

Values after ≈ are worked out from the molar mass of the structure shown.

Holding throughout (format): functional
Common to all, as to settings: read-out: ED50 (the source's name)

One assay relates to XF498. Description: Cytotoxicity against human XF498 cells.
For a further assay, the system named is A549. Description: Cytotoxicity against human A549 cells.
The test system of the next assay is SK-MEL-2. The experiment in a line: Cytotoxicity against human SK-MEL-2 cells.
In the next assay the test system is HCT-15. The experiment in a line: Cytotoxicity against human HCT15 cells.
A further assay relates to SK-OV-3. Description: Cytotoxicity against human SKOV3 cells.

On to `C/C(=C\CCc1ccoc1)C[C@@H]1C=C(C/C=C/c2ccoc2)C(=O)O1`, for which the EC50 with XF498 stood at 11.8 µg/mL (≈ 34.9 µM); in the assay on A549, 7.9 µg/mL (≈ 23.3 µM); with SK-MEL-2, 4.5 µg/mL (≈ 13.3 µM); in the assay with HCT-15, 4.2 µg/mL (≈ 12.4 µM); in the assay on SK-OV-3, 32.3 µg/mL (≈ 95.4 µM).
For `COC1C=C(CCC/C(C)=C/C=C/[C@@H](C)CC/C=C(/C)C[C@H]2OC(=O)C(C)=C2O)C(=O)O1` (stereo not given in full) the same measures were more than 30 µg/mL, more than 30 µg/mL, 10.9 µg/mL (≈ 24.5 µM), 33 µg/mL (≈ 74.2 µM) and more than 30 µg/mL.
For `COc1cccc2c1C(=O)c1c(O)c3c(c(O)c1C2=O)C[C@@](O)(C(=O)CO)C[C@@H]3O[C@H]1C[C@H](N)[C@H](O)[C@H](C)O1` [DOXORUBICIN], in that order: 0.19 µg/mL (≈ 0.35 µM), 0.04 µg/mL (≈ 0.0736 µM), 0.06 µg/mL (≈ 0.11 µM), 0.24 µg/mL (≈ 0.442 µM) and 0.15 µg/mL (≈ 0.276 µM).
For `CC1=C(O)[C@@H](C/C(C)=C\CC[C@H](C)/C=C/C=C(\C)CCCC2=CC(=O)N(CC(=O)[O-])C2)OC1=O.[Na+]` [ISOSARCOTRINE E], in that order: more than 30 µg/mL, more than 30 µg/mL, more than 30 µg/mL, more than 30 µg/mL and more than 30 µg/mL.
As to `COC(=O)[C@H](O)C/C(C)=C\CC[C@H](C)/C=C/C=C(\C)CCCC1=CC(=O)O[C@H]1O` [SARCOTIN N], the EC50 with XF498 was more than 30 µg/mL; in the assay on A549, 19.4 µg/mL (≈ 47.7 µM); with SK-MEL-2, 10.9 µg/mL (≈ 26.8 µM); in the assay on HCT-15, 21.7 µg/mL (≈ 53.4 µM); in the assay with SK-OV-3, more than 30 µg/mL.
Turning to `CC(=O)C(O)C(O)C/C(C)=C\CC[C@H](C)/C=C/C=C(\C)CCCC1=CC(=O)OC1O` (stereo not given in full) [SARCOTIN O], the EC50 amounted to 11.5 µg/mL (≈ 27.3 µM) in the assay on XF498; 6.8 µg/mL (≈ 16.2 µM) in the assay on A549; 3 µg/mL (≈ 7.13 µM) in the assay with SK-MEL-2; 4.6 µg/mL (≈ 10.9 µM) in the assay on HCT-15; 14.9 µg/mL (≈ 35.4 µM) in the assay with SK-OV-3.
`CC1=C(O)[C@@H](C/C(C)=C\CC[C@H](C)/C=C/C=C(\C)CCCC2=CCN(CC(=O)[O-])C2=O)OC1=O.[Na+]` [SARCOTRINE E]: the EC50 with XF498, in the assay on A549, in the assay on SK-MEL-2, with HCT-15 and in the assay on SK-OV-3 was more than 30 µg/mL throughout.
